# From patent US8653089B2, “Heterocyclic compounds and methods of use” (F. Hoffmann-La Roche AG, priority 2011, dated 2014)
# Test system: production of CD69 by B lymphocytes in human whole blood activated by crosslinking surface IgM
# Assay: CD69 human whole blood assay (Example 903), FACS
# Format: cell-based
# Conditions: B lymphocytes activated with goat F(ab')2 anti-human IgM, read-out: CD69 Hu Blood FACS IC50
# Description: There is good evidence that B-cells play a key role in the pathogenesis of autoimmune and/or inflammatory disease. Protein-based therapeutics that deplete B cells such as Rituxan are effective against autoantibody-driven inflammatory diseases such as rheumatoid arthritis (Rastetter et al. (2004) Annu Rev Med 55:477). CD69 is the early activation marker in leukocytes including T cells, thymocytes, B cells, NK cells, neutrophils, and eosinophils. The CD69 human whole blood assay (Example 903) determines the ability of compounds to inhibit the production of CD69 by B lymphocytes in human whole blood activated by crosslinking surface IgM with goat F(ab′)2 anti-human IgM.
row,Compound,IC50
1,"CC(Nc1ncnc2[nH]cnc12)c1nc2ccc(F)cc2n1-c1ccccn1 (stereo not drawn) [Example 210, [1-(6-Fluoro-1-pyridin-2-yl-1H-benzoimidazol-2-yl)-ethyl]-(9H-purin-6-yl)-amine]",20.2 nM
2,"CC(Nc1ncnc2[nH]cnc12)c1nc2ccc(F)cc2n1-c1cccnc1 (stereo not drawn) [Example 220, [1-(6-Fluoro-1-pyridin-3-yl-1H-benzoimidazol-2-yl)-ethyl]-(9H-purin-6-yl)-amine]",12.7 nM
3,"CC(Nc1ncnc2[nH]cnc12)c1nc2ccc(F)cc2n1-c1ccccn1 (stereo not drawn) [Example 182, [1-(6-Fluoro-1-pyridin-2-yl-1H-benzoimidazol-2-yl)-ethyl]-(9H-purin-6-yl)-amine]",67.1 nM

# Same assay, conditions: Homo sapiens, Lymphocyte, B lymphocytes activated with goat F(ab')2 anti-human IgM, read-out: CD69 Hu Blood FACS IC50
row,Compound,IC50
1,"C[C@H](Nc1ncnc(N)c1C#N)c1nc2ccc(F)c(C(=O)N3CCOCC3)c2n1C1CC1 [Example 401, 4-amino-6-[[(1S)-1-[1-cyclopropyl-6-fluoro-7-(morpholine-4-carbonyl)benzimidazol-2-yl]ethyl]amino]pyrimidine-5-carbonitrile]",23.2 nM
2,"C[C@H](Nc1ncnc(N)c1C#N)c1nc2ccc(F)c(-c3ccccc3)c2n1C1CC1 [Example 415, 4-amino-6-[[(1S)-1-(1-cyclopropyl-6-fluoro-7-phenyl-benzimidazol-2-yl)ethyl]amino]pyrimidine-5-carbonitrile]",224 nM
3,"C[C@H](Nc1ncnc(N)c1C#N)c1nc2cccc(C3CC3)c2n1-c1cccnc1 [Example 299, 4-Amino-6-[(S)-1-(7-cyclopropyl-1-pyridin-3-yl-1H-benzoimidazol-2-yl)-ethylamino]-pyrimidine-5-carbonitrile]",35.5 nM
4,"C[C@H](Nc1ncnc(N)c1C#N)c1nc2ccc(F)c3c2n1CCCC3 [Example 406, 4-Amino-6-[(S)-1-(5-fluoro-6,7,8,9-tetrahydro-2,9a-diazabenzo[cd]azulen-1-yl)ethylamino]pyrimidine-5-carbonitrile]",32.6 nM
5,"C[C@H](Nc1ncnc(N)c1C#N)c1nc2cccnc2n1-c1ccccc1 [Example 337, 4-Amino-6-[(S)-1-(3-phenyl-3H-imidazo[4,5-b]pyridin-2-yl)-cthylamino]-pyrimidine-5-carbonitrile]",96.6 nM
6,"CC(Nc1ncnc2[nH]cnc12)c1nc2ccc(F)c(C(=O)N3CCOCC3)c2n1-c1ccccc1 (stereo not drawn) [Example 203, {5-Fluoro-3-phenyl-2-[1-(9H-purin-6-ylamino)-ethyl]-3H-benzoimidazol-4-yl}-morpholin-4-yl-methanone]",2.83 nM
7,"COC[C@H](Nc1ncnc(N)c1C#N)c1nc2ccc(F)cc2n1-c1ccccn1 [Example 271, 4-Amino-6-[(R)-1-(6-fluoro-1-pyridin-2-yl-1H-benzoimidazol-2-yl)-2-methoxy-ethylamino]-pyrimidine-5-carbonitrile]",38.8 nM
8,"COC[C@H](Nc1ncnc2[nH]cnc12)c1nc2ccc(F)cc2n1-c1ccccn1 [Example 270, [(R)-1-(6-Fluoro-1-pyridin-2-yl-1H-benzoimidazol-2-yl)-2-methoxy-ethyl]-(9H-purin-6-yl)-amine]",152 nM
9,"CC(Nc1ncnc2[nH]cnc12)c1nc2ccc(F)c(O)c2n1-c1ccccc1 (stereo not drawn) [Example 327, 5-Fluoro-3-phenyl-2-[1-(9H-purin-6-ylamino)-ethyl]-3H-benzoimidazol-4-ol]",196 nM
10,"C[C@H](Nc1ncnc(N)c1C#N)c1nc2ccc(F)cc2n1-c1ccnn1C [Example 416, 4-amino-6-[[(1S)-1-[6-fluoro-1-(2-methylpyrazol-3-yl)benzimidazol-2-yl]ethyl]amino]pyrimidine-5-carbonitrile]",67.8 nM
11,"C[C@H](Nc1ncnc(N)c1C#N)c1nc2ccc(F)c(C#N)c2n1-c1ccccn1 [Example 291, 2-[(S)-1-(6-Amino-5-cyano-pyrimidin-4-ylamino)-ethyl]-5-fluoro-3-pyridin-2-yl-3H-benzoimidazole-4-carbonitrile]",97.2 nM
12,"COCC(Nc1ncnc2nc[nH]c12)c1nc2ccc(F)cc2n1-c1ccccc1 (stereo not drawn) [Example 171, [1-(6-Fluoro-1-phenyl-1H-benzoimidazol-2-yl)-2-methoxy-ethyl]-(7H-purin-6-yl)-amine]",106 nM
13,"CC[C@H](Nc1ncnc2[nH]cnc12)c1nc2ccc(F)c(C#N)c2n1-c1ccccc1 [Example 244, 5-Fluoro-3-phenyl-2-[(S)-1-(9H-purin-6-ylamino)-propyl]-3H-benzoimidazole-4-carbonitrile]",79.3 nM
14,"CC(Nc1ncnc2[nH]cnc12)c1nc2ccc(F)cc2n1-c1cncc(F)c1 (stereo not drawn) [Example 263, {1-[6-Fluoro-1-(5-fluoro-pyridin-3-yl)-1H-benzoimidazol-2-yl]-ethyl}-(9H-purin-6-yl)-amine]",25.4 nM
15,"Cc1nc(N)nc(N[C@@H](C)c2nc3ccc(F)cc3n2-c2ccccc2)c1C#N [Example 328, 2-Amino-4-[(S)-1-(6-fluoro-1-phenyl-1H-benzoimidazol-2-yl)-ethylamino]-6-methyl-pyrimidine-5-carbonitrile]",3.44 nM
16,"CC(Nc1ncnc2[nH]cnc12)c1nc2ccc(F)cc2n1-c1ccc(F)cc1 (stereo not drawn) [Example 221, {1-[6-Fluoro-1-(4-fluoro-phenyl)-1H-benzoimidazol-2-yl]-ethyl}-(9H-purin-6-yl)-amine]",152 nM
17,"C[C@H](Nc1ncnc(N)c1C#N)c1nc2ccc(F)cc2n1-c1ccccc1 [Example 246, 4-Amino-6-[(S)-1-(6-fluoro-1-phenyl-1H-benzoimidazol-2-yl)-ethylamino]-pyrimidine-5-carbonitrile]",16.7 nM

row,Compound,IC50
1,"Cc1c(F)ccc2nc([C@H](C)Nc3ncnc(N)c3C#N)n(-c3ccccn3)c12 [Example 289, 4-Amino-6-[(S)-1-(6-fluoro-7-methyl-1-pyridin-2-yl-1H-benzoimidazol-2-yl)-ethylamino]-pyrimidine-5-carbonitrile]",48.3 nM
2,"CC(Nc1ncnc2[nH]cnc12)c1nc2ccc(F)cc2n1-c1ccc(C#N)cc1 (stereo not drawn) [Example 227, 4-{6-Fluoro-2-[1-(9H-purin-6-ylamino)-ethyl]-benzoimidazol-1-yl}-benzonitrile]",78.3 nM
3,"Cc1nc(N)nc(N[C@@H](C)c2nc3ccc(F)cc3n2-c2ccccc2)n1 [Example 258, N—[(S)-1-(6-Fluoro-1-phenyl-1H-benzoimidazol-2-yl)-ethyl]-6-methyl-[1,3,5]triazine-2,4-diamine]",141 nM
4,"COc1c(F)ccc2nc([C@H](C)Nc3ncnc(N)c3C#N)n(-c3ccccc3)c12 [Example 339, 4-Amino-6-[(S)-1-(6-fluoro-7-methoxy-1-phenyl-1H-benzoimidazol-2-yl)-ethylamino]-pyrimidine-5-carbonitrile]",4.93 nM
5,"C[C@H](Nc1ncnc2[nH]cnc12)c1nc2ccc(F)cc2n1-c1cnn(C)c1 [Example 419, N-[(1S)-1-[6-fluoro-1-(1-methylpyrazol-4-yl)benzimidazol-2-yl]ethyl]-9H-purin-6-amine]",43.3 nM
6,"C[C@H](Nc1ncnc2[nH]cnc12)c1nc2ccc(F)c(Br)c2n1-c1ccccc1 [Example 178, [(S)-1-(7-Bromo-6-fluoro-1-phenyl-1H-benzoimidazol-2-yl)-ethyl]-(9H-purin-6-yl)-amine]",80.6 nM
7,"OC[C@H](Nc1ncnc2[nH]cnc12)c1nc2ccc(F)cc2n1-c1ccccn1 [Example 280, (R)-2-(6-Fluoro-1-pyridin-2-yl-1H-benzoimidazol-2-yl)-2-(9H-purin-6-ylamino)-ethanol]",139 nM
8,"C[C@H](Nc1ncnc2[nH]cnc12)c1nc2ccc(F)c(C(=O)N3CCOCC3)c2n1C1CC1 [Example 389, [3-cyclopropyl-5-fluoro-2-[(1S)-1-(9H-purin-6-ylamino)ethyl]benzimidazol-4-yl]-morpholino-methanone]",11.9 nM
9,"COC(=O)c1c(F)ccc2nc(C(C)Nc3ncnc4[nH]cnc34)n(-c3ccccc3)c12 (stereo not drawn) [Example 197, 5-Fluoro-3-phenyl-2-[1-(9H-purin-6-ylamino)-ethyl]-3H-benzoimidazole-4-carboxylic acid methyl ester]",31.6 nM
10,"Fc1ccc2nc(CNc3ncnc4[nH]cnc34)n(-c3ccccc3)c2c1 [Example 443, (6-Fluoro-1-phenyl-1H-benzoimidazol-2-ylmethyl)-(9H-purin-6-yl)amine]",> 5000 nM
11,"C[C@H](Nc1ncnc2[nH]cnc12)c1nc2ccc(F)c(C#N)c2n1-c1cccnc1 [Example 281, 5-Fluoro-2-[(S)-1-(9H-purin-6-ylamino)-ethyl]-3-pyridin-3-yl-3H-benzoimidazole-4-carbonitrile]",110 nM
12,"C[C@H](Nc1ncnc(N)c1C#N)c1nc2ccc(F)cc2n1-c1cnn(C)c1 [Example 418, 4-amino-6-[[(1S)-1-[6-fluoro-1-(1-methylpyrazol-4-yl)benzimidazol-2-yl]ethyl]amino]pyrimidine-5-carbonitrile]",107 nM
13,"C[C@H](Nc1ncnc2[nH]cnc12)c1nc2ccc(F)c(C3CC3)c2n1-c1cccnc1 [Example 294, [(S)-1-(7-Cyclopropyl-6-fluoro-1-pyridin-3-yl-1H-benzoimidazol-2-yl)-ethyl]-(9H-purin-6-yl)-amine]",4.1 nM
14,"N#Cc1c(N)ncnc1NCc1nc2ccc(F)cc2n1-c1ccccc1 [Example 371, 4-amino-6-((6-fluoro-1-phenyl-1H-benzo[d]imidazol-2-yl)methylamino)pyrimidine-5-carbonitrile]",514 nM
15,"C[C@H](Nc1ncnc(N)c1C#N)c1nc2ccc(F)cc2n1-c1cncc(F)c1 [Example 277, 4-Amino-6-{(S)-1-[6-fluoro-1-(5-fluoro-pyridin-3-yl)-1H-benzoimidazol-2-yl]-ethylamino}-pyrimidine-5-carbonitrile]",18 nM
16,"C[C@H](Nc1ncnc(N)c1C#N)c1nc2ccc(F)c(C3CC3)c2n1-c1cccnc1 [Example 306, 4-Amino-6-[(S)-1-(7-cyclopropyl-6-fluoro-1-pyridin-3-yl-1H-benzoimidazol-2-yl)-ethylamino]-pyrimidine-5-carbonitrile]",2.87 nM
